# System: MCF7 cells
# Assay: Anti-proliferation (viability) of MCF7 cells (Table 7, FIG. 2B)
# Type: cell-based
# Conditions: Homo sapiens, MCF7, MCF7 cells, 3-6 days, 10-point serial dilution; read-out: GI IC50 in MCF-7
row,SMILES,IC50 [nM]
1,"CNc1ccc(C(=O)Nc2ccc(N(C)C)nn2)c(NC2CC(N3CCC(CN4CCN(c5ccc(Nc6ncc7c(C)c(C(C)=O)c(=O)n(C8CCCC8)c7n6)nc5)CC4)C3)C2)n1 (centres unmarked) [CPD-319, 2-((3-(3-((4-(6-((6-acetyl-8-cyclopentyl-5-methyl-7-oxo-7,8-dihydropyrido[2,3-d]pyrimidin-2-yl)amino)pyridin-3-yl)piperazin-1-yl)methyl)pyrrolidin-1-yl)cyclobutyl)amino)-N-(6-(dimethylamino)pyridazin-3-yl)-6-(methylamino)nicotinamide]",> 100
2,"CNc1ccc(C(=O)Nc2cn(C)c(C3CC3)n2)c(NC2CCC3(CC2)CC(NC(=O)CN2CCN(c4ccc(Nc5ncc6c(C)c(C(C)=O)c(=O)n(C7CCCC7)c6n5)nc4)CC2)C3)n1 (centres unmarked) [CPD-347, 2-((2-(2-(4-(6-((6-acetyl-8-cyclopentyl-5-methyl-7-oxo-7,8-dihydropyrido[2,3-d]pyrimidin-2-yl)amino)pyridin-3-yl)piperazin-1-yl)acetamido)spiro[3.5]nonan-7-yl)amino)-N-(2-cyclopropyl-1-methyl-1H-imidazol-4-yl)-6-(methylamino)nicotinamide]",> 100
3,"CNc1ccc(C(=O)Nc2ccc(N(C)C)nn2)c(NC2CC(C(=O)N3CCC4(CC3)CCN(c3ccc(Nc5ncc6c(C)c(C(C)=O)c(=O)n(C7CCCC7)c6n5)nc3)CC4)C2)n1 (centres unmarked) [CPD-337, 2-((3-(9-(6-((6-acetyl-8-cyclopentyl-5-methyl-7-oxo-7,8-dihydropyrido[2,3-d]pyrimidin-2-yl)amino)pyridin-3-yl)-3,9-diazaspiro[5.5]undecane-3-carbonyl)cyclobutyl)amino)-N-(6-(dimethylamino)pyridazin-3-yl)-6-(methylamino)nicotinamide]",> 100
4,"[2H]C([2H])([2H])Nc1ccc(C(=O)Nc2cn(C)c(C3CC3)n2)c(NC2CC(NC(=O)CN3CCN(c4ccc(Nc5ncc6c(C)c(C(C)=O)c(=O)n(C7CCCC7)c6n5)nc4)CC3)C2)n1 (centres unmarked) [CPD-307, 2-((3-(2-(4-(6-((6-acetyl-8-cyclopentyl-5-methyl-7-oxo-7,8-dihydropyrido[2,3-d]pyrimidin-2-yl)amino)pyridin-3-yl)piperazin-1-yl)acetamido)cyclobutyl)amino)-N-(2-cyclopropyl-1-methyl-1H-imidazol-4-yl)-6-((methyl-d3)amino)nicotinamide]",> 100
5,"CC(=O)c1c(C)c2cnc(Nc3ccc(N4CCN(C(C)C(=O)NC5CC(Nc6nc(NC(C)C)ccc6C(=O)Nc6cn(C)c(C7CC7)n6)C5)CC4)cn3)nc2n(C2CCCC2)c1=O (centres unmarked) [CPD-327, 2-((3-(2-(4-(6-((6-acetyl-8-cyclopentyl-5-methyl-7-oxo-7,8-dihydropyrido[2,3-d]pyrimidin-2-yl)amino)pyridin-3-yl)piperazin-1-yl)propanamido)cyclobutyl)amino)-N-(2-cyclopropyl-1-methyl-1H-imidazol-4-yl)-6-(isopropylamino)nicotinamide]",> 100
6,"[2H]C([2H])([2H])Nc1ccc(C(=O)Nc2cc(C)on2)c(NC2CC(C(C)NC(=O)CN3CCN(c4ccc(Nc5ncc6c(C)c(C(C)=O)c(=O)n(C7CCCC7)c6n5)nc4)CC3)C2)n1 (centres unmarked) [CPD-361, 2-((3-(1-(2-(4-(6-((6-acetyl-8-cyclopentyl-5-methyl-7-oxo-7,8-dihydropyrido[2,3-d]pyrimidin-2-yl)amino)pyridin-3-yl)piperazin-1-yl)acetamido)ethyl)cyclobutyl)amino)-6-((methyl-d3)amino)-N-(5-methylisoxazol-3-yl)nicotinamide]",> 100
7,"CCCNc1ccc(C(=O)Nc2cn(C)c(C3CC3)n2)c(NC2CC3(CC(NC(=O)CN4CCN(c5ccc(Nc6ncc7c(C)c(C(C)=O)c(=O)n(C8CCCC8)c7n6)nc5)CC4)C3)C2)n1 (centres unmarked) [CPD-298, 2-((6-(2-(4-(6-((6-acetyl-8-cyclopentyl-5-methyl-7-oxo-7,8-dihydropyrido[2,3-d]pyrimidin-2-yl)amino)pyridin-3-yl)piperazin-1-yl)acetamido)spiro[3.3]heptan-2-yl)amino)-N-(2-cyclopropyl-1-methyl-1H-imidazol-4-yl)-6-(propylamino)nicotinamide]",> 100
8,"CNc1ccc(C(=O)Nc2cn(C)c(C3CCC3)n2)c(NC2CC3(CC(NC(=O)CN4CCN(c5ccc(Nc6ncc7c(C)c(C(C)=O)c(=O)n(C8CCCC8)c7n6)nc5)CC4)C3)C2)n1 (centres unmarked) [CPD-310, 2-((6-(2-(4-(6-((6-acetyl-8-cyclopentyl-5-methyl-7-oxo-7,8-dihydropyrido[2,3-d]pyrimidin-2-yl)amino)pyridin-3-yl)piperazin-1-yl)acetamido)spiro[3.3]heptan-2-yl)amino)-N-(2-cyclobutyl-1-methyl-1H-imidazol-4-yl)-6-(methylamino)nicotinamide]",> 100

# Continued, values first:
row,IC50 [nM],SMILES
1,> 100,"CNc1ccc(C(=O)Nc2ccc(N(C)C)nn2)c(NC2CC(C(=O)NC3CC4(CCN(c5ccc(Nc6ncc7c(C)c(C(C)=O)c(=O)n(C8CCCC8)c7n6)nc5)CC4)C3)C2)n1 (centres unmarked) [CPD-375, 2-((3-((7-(6-((6-acetyl-8-cyclopentyl-5-methyl-7-oxo-7,8-dihydropyrido[2,3-d]pyrimidin-2-yl)amino)pyridin-3-yl)-7-azaspiro[3.5]nonan-2-yl)carbamoyl)cyclobutyl)amino)-N-(6-(dimethylamino)pyridazin-3-yl)-6-(methylamino)nicotinamide]"
2,50 to 100,"CC(=O)c1c(C)c2cnc(Nc3ccc(N4CCN(CC(=O)N5CCC(Nc6nc(NC(C)C)ccc6C(=O)Nc6ccc(N(C)C)nn6)CC5)CC4)cn3)nc2n(C2CCCC2)c1=O [CPD-369, 2-((1-(2-(4-(6-((6-acetyl-8-cyclopentyl-5-methyl-7-oxo-7,8-dihydropyrido[2,3-d]pyrimidin-2-yl)amino)pyridin-3-yl)piperazin-1-yl)acetyl)piperidin-4-yl)amino)-N-(6-(dimethylamino)pyridazin-3-yl)-6-(isopropylamino)nicotinamide]"
3,< 50,"CC(=O)c1c(C)c2cnc(Nc3ccc(N4CCN(CC(=O)NC5CC6(C5)CC(Nc5nc(NC(C)C)ccc5C(=O)Nc5cc(C)n(C7CC7)n5)C6)CC4)cn3)nc2n(C2CCCC2)c1=O (centres unmarked) [CPD-452, 2-((6-(2-(4-(6-((6-acetyl-8-cyclopentyl-5-methyl-7-oxo-7,8-dihydropyrido[2,3-d]pyrimidin-2-yl)amino)pyridin-3-yl)piperazin-1-yl)acetamido)spiro[3.31]heptan-2-yl)amino)-N-(1-cyclopropyl-5-methyl-1H-pyrazol-3-yl)-6-(isopropylamino)nicotinamide]"
4,< 50,"[2H]C([2H])([2H])Nc1ccc(C(=O)Nc2ccc(N(C)C)nn2)c(NC2CC3(CC(NC(=O)CN4CCC5(CCN(c6ccc(Nc7ncc8c(C)c(C(C)=O)c(=O)n(C9CCCC9)c8n7)nc6)C5)C4)C3)C2)n1 (centres unmarked) [CPD-449, 2-((6-(2-(7-(6-((6-acetyl-8-cyclopentyl-5-methyl-7-oxo-7,8-dihydropyrido[2,3-d]pyrimidin-2-yl)amino)pyridin-3-yl)-2,7-diazaspiro[4.4]nonan-2-yl)acetamido)spiro[3.3]heptan-2-yl)amino)-N-(6-(dimethylamino)pyridazin-3-yl)-6-((methyl-d3)amino)nicotinamide]"
5,> 100,"CNc1ccc(C(=O)Nc2ccc(N(C)C)nn2)c(NC2CC3(C2)CN(C(=O)C2CN(C4CCN(c5ccc(Nc6ncc7c(C)c(C(C)=O)c(=O)n(C8CCCC8)c7n6)nc5)CC4)C2)C3)n1 [CPD-364, 2-((2-(1-(1-(6-((6-acetyl-8-cyclopentyl-5-methyl-7-oxo-7,8-dihydropyrido[2,3-d]pyrimidin-2-yl)amino)pyridin-3-yl)piperidin-4-yl)azetidine-3-carbonyl)-2-azaspiro[3.3]heptan-6-yl)amino)-N-(6-(dimethylamino)pyridazin-3-yl)-6-(methylamino)nicotinamide]"
6,< 50,"CC(=O)c1c(C)c2cnc(Nc3ccc(N4CCC5(CC4)CC5C(=O)N4CCC(Nc5nc(NC(C)C)ccc5C(=O)Nc5cn(C)c(C6CC6)n5)CC4)cn3)nc2n(C2CCCC2)c1=O (centres unmarked) [CPD-409, 2-((1-(6-(6-((6-acetyl-8-cyclopentyl-5-methyl-7-oxo-7,8-dihydropyrido[2,3-d]pyrimidin-2-yl)amino)pyridin-3-yl)-6-azaspiro[2.5]octane-1-carbonyl)piperidin-4-yl)amino)-N-(2-cyclopropyl-1-menthyl-1H-imidazol-4-yl)-6-(isopropylamino)nicotinamide]"
7,> 100,"CC(=O)c1c(C)c2cnc(Nc3ccc(N4CCC(NCC(=O)N5CCC(Nc6nc(NC(C)C)ccc6C(=O)Nc6ccc(N(C)C)nn6)C5)CC4)cn3)nc2n(C2CCCC2)c1=O (centres unmarked) [CPD-372, 2-((1-((1-(6-((6-acetyl-8-cyclopentyl-5-methyl-7-oxo-7,8-dihydropyrido[2,3-d]pyrimidin-2-yl)amino)pyridin-3-yl)piperidin-4-yl)glycyl)pyrrolidin-3-yl)amino)-N-(6-(dimethylamino)pyridazin-3-yl)-6-(isopropylamino)nicotinamide]"
8,< 50,"[2H]C([2H])([2H])Nc1ccc(C(=O)Nc2cn(C)c(C3CC3)n2)c(NC2CC3(C2)CN(C(=O)CC(N2CCN(c4ccc(Nc5ncc6c(C)c(C(C)=O)c(=O)n(C7CCCC7)c6n5)nc4)CC2)C(F)(F)F)C3)n1 (centres unmarked) [CPD-435, 2-((2-(3-(4-(6-((6-acetyl-8-cyclopentyl-5-methyl-7-oxo-7,8-dihydropyrido[2,3-d]pyrimidin-2-yl)amino)pyridin-3-yl)piperazin-1-yl)-4,4,4-trifluorobutanoyl)-2-azaspiro[3.3]heptan-6-yl)amino)-N-(2-cyclopropyl-1-methyl-1H-imidazol-4-yl)-6-((methyl-d3)amino)nicotinamide]"
9,> 100,"CNc1ccc(C(=O)Nc2ccc(N(C)C)nn2)c(NC2CCC3(CC(NC(=O)CN4CCN(c5ccc(Nc6ncc7c(C)c(C(C)=O)c(=O)n(C8CCCC8)c7n6)nc5)CC4)C3)C2)n1 (centres unmarked) [CPD-416, 2-((2-(2-(4-(6-((6-acetyl-8-cyclopentyl-5-methyl-7-oxo-7,8-dihydropyrido[2,3-d]pyrimidin-2-yl)amino)pyridin-3-yl)piperazin-1-yl)acetamido)spiro[3.4]octan-6-yl)amino)-N-(6-(dimethylamino)pyridazin-3-yl)-6-(methylamino)nicotinamide]"

# — patent US20260297081A1, “COMPOUNDS AND METHODS OF TREATING CANCERS” (Cullgen Inc., priority 2023, published 2026)
